Results reported in ChEMBL document CHEMBL5038588 (J Med Chem, 2021).

Key:
[1] = tested on: BaF3; test: Inhibition of cell proliferation in mouse BaF3 cells expressing BCR-ABL T315I mutant assessed as cell viability at 100 uM measured after 48 hrs by trypan blue based assay (RVB=100%); format: functional; details: read-out: Activity
[2] = tested on: U-937; test: Cytotoxicity against human U-937 cells assessed as inhibition of cell growth measured after 72 hrs by MTT assay; format: functional, cell-based; details: U-937, 72 h
[3] = tested on: BaF3; test: cells; details: Mus musculus, BaF3, 72 h
Description: Cytotoxicity against mouse BAF3 cells expressing native BCR-ABL assessed as inhibition of cell growth measured after 72 hrs by MTT assay

[4] = tested on: KU812 cell line; test: Cytotoxicity against human KU812 cells assessed as inhibition of cell growth measured after 72 hrs by MTT assay; format: functional, cell-based; details: KU812, 72 h
[5] = tested on: Jurkat; test: Cytotoxicity against human Jurkat cells assessed as inhibition of cell growth measured after 72 hrs by MTT assay; format: functional, cell-based
[6] = tested on: K562; test: cells; details: Homo sapiens, K562, 72 h
Description: Cytotoxicity against human K562 cells assessed as cell growth inhibition measured after 72 hrs by MTT assay

[7] = tested on: BaF3; test: cells; details: Mus musculus, BaF3, 48 h
Description: Cytotoxicity against mouse BAF3 cells expressing BCR-ABL T315I mutant assessed as inhibition of cell growth measured after 48 hrs by trypan blue assay

Structure (SMILES) | viability at 100 µM [1] [%] | other results
CN1CCN(Cc2ccc3nc(-c4ccc(Cl)c(C#Cc5ccc(NC6CC6)nn5)c4)[nH]c3c2)CC1 | 74.8 | 
Cc1ccc(C(=O)Nc2ccc3c(c2)C(F)(F)C[C@H]3N2CCN(C)CC2)cc1C#Cc1cnc(NC2CC2)nc1 |  | IC50 [2]: 465 nM; IC50 [3]: 62.5 nM; IC50 [4]: 5.2 nM; IC50 [5]: 400 nM; IC50 [6]: 10.4 nM; IC50 [7]: > 100 nM
Cc1cn(-c2ccc3nc(-c4ccc(C)c(C#Cc5cnc6cccnn56)c4)[nH]c3c2)cn1 | 94.1 | 
Cc1ccc(-c2nc3ccc(CN4CCN(C)CC4)cc3[nH]2)cc1C#Cc1ccc(NC(C)C)nn1 | 96.5 | 
CN1CCN(Cc2ccc3nc(-c4ccc(Cl)c(C#Cc5cnc6cccnn56)c4)[nH]c3c2)CC1 | 94.5 | 
Cc1ccc(-c2nc3ccc(CN4CCN(C)CC4)cc3[nH]2)cc1C#Cc1ccc(NC2CC2)nn1 | 88.9 | 
CN1CCN(Cc2ccc3nc(-c4ccc(Cl)c(C#Cc5cnc(NC6CC6)nc5)c4)[nH]c3c2)CC1 | 105 | 
CC(C)Nc1ccc(C#Cc2cc(-c3nc4ccc(CN5CCN(C)CC5)cc4[nH]3)ccc2Cl)nn1 | 100 | 
CN1CCN(Cc2ccc3nc(-c4ccc(Cl)c(C#Cc5ccc(NC6CCC6)nn5)c4)[nH]c3c2)CC1 | 97.4 | 
Cc1ccc(-c2nc3ccc(CN4CCN(C)CC4)cc3[nH]2)cc1C#Cc1ccc(NC2CCC2)nn1 | 110 | 
